Consider 23 compounds from US9540391B2, “Isomannide derivatives as inhibitors of soluble epoxide hydrolase” (SANOFI, priority 2013, dated 2017).

Counter-ions that a name gives are not always drawn.

This assay has as its target T1, recombinant sEH (Homo sapiens, UniProt P34913).
T1 construct: made in house; host or cells: Sf9 insect cells
T1 sequence (P34913 1-555): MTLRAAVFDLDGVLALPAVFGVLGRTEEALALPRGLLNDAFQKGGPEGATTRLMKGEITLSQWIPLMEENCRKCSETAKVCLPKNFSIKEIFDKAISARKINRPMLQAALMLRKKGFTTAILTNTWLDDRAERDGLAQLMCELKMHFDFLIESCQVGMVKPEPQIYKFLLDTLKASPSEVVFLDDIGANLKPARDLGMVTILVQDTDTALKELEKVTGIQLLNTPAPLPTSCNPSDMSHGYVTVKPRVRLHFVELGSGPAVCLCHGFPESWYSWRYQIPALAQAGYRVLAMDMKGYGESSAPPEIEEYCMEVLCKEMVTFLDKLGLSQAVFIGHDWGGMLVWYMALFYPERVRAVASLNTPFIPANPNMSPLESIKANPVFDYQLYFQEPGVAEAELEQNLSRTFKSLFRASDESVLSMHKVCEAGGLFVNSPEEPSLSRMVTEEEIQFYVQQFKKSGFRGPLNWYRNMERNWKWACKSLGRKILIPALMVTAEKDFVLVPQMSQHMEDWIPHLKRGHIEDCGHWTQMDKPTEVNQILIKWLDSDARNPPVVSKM
In words: biochemical screening assay for inhibition of soluble epoxide hydrolase (fluorometric, Phome substrate). Summed up:
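Reading fluorescence before substrate addition and after completion corrected for autofluorescence. Reaction: 5 μM Phome, 2 nM recombinant human sEH (Sf9-expressed), compound 0.0001–10 μM, 25 mM Hepes with 0.01% albumin, 15 min pre-incubation then 60 min at 30 °C; IC50 derived from % inhibition.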
Usually IC50 stands for the concentration needed to halve the response being measured. As for `O=C(NC1CCCCC1)N[C@H]1CO[C@H]2[C@@H]1OC[C@@H]2Oc1ccc(-c2ccccc2)cc1` [Example 105, 1-[(3S,3aR,6S,6aS)-6-(Biphenyl-4-yloxy)-hexahydro-furo[3,2-b]furan-3-yl]-3-cyclohexyl-urea], the IC50 turned out to be 7 nM.
With `CC(C)(C)Oc1ccc(O[C@H]2CO[C@H]3[C@@H]2OC[C@@H]3NC(=O)NC2CCCCC2)cc1` [Example 116, 1-[(3S,3aR,6S,6aS)-6-(4-tert-Butoxy-phenoxy)-hexahydro-furo[3,2-b]furan-3-yl]-3-cyclohexyl-urea] the figure was 3 nM; with `O=C(NCCc1cccs1)N[C@H]1CO[C@H]2[C@@H]1OC[C@@H]2C#Cc1ccsc1` [Example 313, 1-(2-Thiophen-2-yl-ethyl)-3-((3S,3aR,6S,6aR)-6-thiophen-3-ylethynyl-hexahydro-furo[3,2-b]furan-3-yl)-urea], 56 nM.
For `CC1CCC(NC(=O)N[C@H]2CO[C@H]3[C@@H]2OC[C@@H]3Oc2ccc(F)cc2)CC1` (stereo partly drawn) [Example 151, 1-[(3S,3aR,6S,6aS)-6-(4-Fluoro-phenoxy)-hexahydro-furo[3,2-b]furan-3-yl]-3-(4-methyl-cyclohexyl)-urea], the half-maximal inhibitory concentration (IC50) was determined as 8 nM.
To `Cc1ncccc1OC1COC2C(NC(=O)NC3C4(C)CCC(C4)C3(C)C)COC12` [Example 195, 1-[(2R,3aS,5S,6S)-6-(2-Methyl-pyridin-3-yloxy)-hexahydro-furo[3,2-b]furan-3-yl]-3-((1S,4R)-1,3,3-tri-methyl-bicyclo[2.2.1]hept-2-yl)-urea] belongs 56 nM; to `O=C(NC1CCCCC1)N[C@H]1CO[C@H]2[C@@H]1OC[C@@H]2Oc1ccc(C(=O)N2CCNCC2)cc1` [Example 126, 1-Cyclohexyl-3-{(3S,3aR,6S,6aS)-6-[4-(piperazine-1-carbonyl)-phenoxy]-hexahydro-furo[3,2-b]furan-3-yl}-urea; trifluoroacetate], 30 nM; to `Cc1cccc(NC(=O)NC2COC3C(CCc4ccccc4)COC23)c1` [Example 357, 1-[(3S,3aR,6R)-6-((S)-Phenethyl)-hexahydro-furo[3,2-b]furan-3-yl]-3-m-tolyl-urea], 84 nM.
Turning to `Cc1ncccc1O[C@H]1CO[C@H]2[C@@H]1OC[C@@H]2NC(=O)Nc1cc(C(C)(C)C)[nH]n1` [Example 215, 1-(5-tert-Butyl-1H-pyrazol-3-yl)-3-[(3S,3aR,6S,6aS)-6-(2-methyl-pyridin-3-yloxy)-hexahydro-furo[3,2-b]furan-3-yl]-urea], the IC50 was 238 nM.
With `Cc1cccnc1CCNC(=O)N[C@H]1CO[C@H]2[C@@H]1OC[C@@H]2Oc1cccnc1C` [Example 205, 1-[2-(3-Methyl-pyridin-2-yl)-ethyl]-3-[(3S,3aR,6S,6aS)-6-(2-methyl-pyridin-3-yloxy)-hexahydro-furo[3,2-b]furan-3-yl]-urea] the figure was 528 nM; with `Cc1ncccc1O[C@H]1CO[C@H]2[C@@H]1OC[C@@H]2NC(=O)NC1CCCN(C(=O)C(F)(F)F)C1` (stereo partly drawn) [Example 87, 1-[(3S,3aR,6S,6aS)-6-(2-Methyl-pyridin-3-yloxy)-hexahydro-furo[3,2-b]furan-3-yl]-3-[1-(2,2,2-trifluoro-acetyl)-piperidin-3-yl]-urea], 10 nM.
With `O=C(Nc1ccc(C(F)(F)F)cc1)NC1COC2C(C=Cc3ccsc3)COC12` [Example 342, 1-[(3S,3aR,6S,6aR)-6-((Z)-2-Thio-phen-3-yl-vinyl)-hexahydro-furo[3,2-b]furan-3-yl]-3-(4-trifluoromethyl-phenyl)-urea] the figure was 17 nM.
With `Cc1ncccc1O[C@H]1CO[C@H]2[C@@H]1OC[C@@H]2NC(=O)NC1CCOc2ccccc21` (stereo partly drawn) [Example 207, 1-Chroman-4-yl-3-[(3S,3aR,6S,6aS)-6-(2-methyl-pyridin-3-yloxy)-hexa-hydro-furo[3,2-b]furan-3-yl]-urea] the figure was 3 nM; with `O=C(Nc1ccc(F)cc1)NC1COC2C(C=Cc3ccccc3)COC12` [Example 328, 1-(4-Fluoro-phenyl)-3-[(3S,3aR,6R)-6-((S)-(Z)-styryl)-hexahydro-furo[3,2-b]furan-3-yl]-urea], 98 nM.
With `O=C(NC1CCCCC1)N[C@H]1CO[C@H]2[C@@H]1OC[C@@H]2Oc1cccc2c1CCC2=O` [Example 144, 1-Cyclohexyl-3-[(3S,3aR,6S,6aS)-6-(1-oxo-indan-4-yloxy)-hexahydro-furo[3,2-b]furan-3-yl]-urea], the IC50 was found to be 1 nM.
To `CCCCOc1ccc(NC(=O)NC2COC3C(C#Cc4ccccc4)COC23)cc1` [Example 283, 1-(4-Butoxy-phenyl)-3-[(3S,3aR,6R)-6-((S)-phenylethynyl)-hexahydro-furo[3,2-b]furan-3-yl]-urea] belongs 70 nM; to `CC(=O)NCCS[C@H]1CO[C@H]2[C@@H]1OC[C@@H]2NC(=O)NC1CCCCC1` [Example 16, N-{2-[(3S,3aS,6S,6aR)-6-(3-Cyclohexyl-ureido)-hexahydro-furo[3,2-b]furan-3-ylsulfanyl]-ethyl}-acetamide], 8 nM; to `O=C(Nc1ccccc1)NC1COC2C(C#Cc3ccsc3)COC12` [Example 303, 1-Phenyl-3-((3S,3aR,6S,-6aR)-6-thiophen-3-ylethynyl-hexahydro-furo[3,2-b]furan-3-yl)-urea], 241 nM.
To `O=C(NC1CCCCC1)N[C@H]1CO[C@H]2[C@@H]1OC[C@@H]2Oc1ccccc1-c1nnn[nH]1` [Example 26, 1-Cyclohexyl-3-{(3S,3aR,6S,6aS)-6-[2-(1H-tetrazol-5-yl)-phenoxy]-hexahydro-furo[3,2-b]furan-3-yl}-urea] belongs 454 nM; to `CCC(O)(CC)c1cncc(O[C@H]2CO[C@H]3[C@@H]2OC[C@@H]3NC(=O)NC2CCCCC2)c1` [Example 69, 1-cyclohexyl-3-{(3S,3aR,6S,6aS)-6-[5-(1-ethyl-1-hydroxy-propyl)-pyridin-3-yloxy]-hexahydro-furo[3,2-b]furan-3-yl}-urea], 2 nM; to `O=C(NC1CCCCC1)N[C@H]1CO[C@H]2[C@@H]1OC[C@@H]2Oc1cccc(-c2ccccc2)c1` [Example 104, 1-[(3S,3aR,6S,6aS)-6-(Biphenyl-3-yloxy)-hexahydro-furo[3,2-b]furan-3-yl]-3-cyclohexyl-urea], 5 nM.
With `Cc1ncccc1O[C@H]1CO[C@H]2[C@@H]1OC[C@@H]2NC(=O)NC1(C)CCCCC1` [Example 249, 1-(1-Methyl-cyclohexyl)-3-[(3S,3aR,6S,6aS)-6-(2-methyl-pyridin-3-yloxy)-hexahydro-furo[3,2-b]furan-3-yl]-urea] the figure was 73 nM; with `Cc1ncccc1O[C@H]1CO[C@H]2[C@@H]1OC[C@@H]2NC(=O)NC1CCCN(C(=O)c2ccc(F)cc2)C1` (stereo partly drawn) [Example 83, 1-[1-(4-fluoro-benzoyl)-piperidin-3-yl]-3-[(3S,3aR,6S,6aS)-6-(2-methyl-pyridin-3-yloxy)-hexahydro-furo[3,2-b]furan-3-yl]-urea], 182 nM.
`Cc1nc(-c2ccccc2O[C@H]2CO[C@H]3[C@@H]2OC[C@@H]3NC(=O)NC2CCCCC2)cs1` [Example 20, 1-Cyclohexyl-3-{(3S,3aR,6S,6aS)-6-[2-(2-methyl-thiazol-4-yl)-phenoxy]-hexahydro-furo[3,2-b]furan-3-yl}-urea]: the IC50 stood at 2 nM.
